In patent publication US10477864B2, “Microbiocidal quinoline (thio)carboxamide derivatives” (priority 2016, dated 2019):

Key:
[1] = tested on: Botryotinia fuckeliana (Botrytis cinerea); assay: Botryotinia fuckeliana (Botrytis cinerea) / liquid culture (gray mould); format: cell-based; settings: 72 h, read-out: control of Botryotinia fuckeliana
Fusarium culmorum [2] = assay: microbe, parasite or virus in culture; format: cell-based; settings: read-out: control of Fusarium culmorum
[3] = tested on: Monographella nivalis (Microdochium nivale); assay: Monographella nivalis (Microdochium nivale) / liquid culture (foot rot cereals); format: cell-based; settings: 96 h, read-out: control of Monographella nivalis
Fusarium culmorum [4] = assay: whole plant or invertebrate; format: in vivo; settings: in Triticum aestivum, read-out: control of Fusarium culmorum
[5] = tested on: Glomerella lagenarium (Colletotrichum lagenarium); assay: Glomerella lagenarium (Colletotrichum lagenarium) / liquid culture (anthracnose); format: cell-based; settings: Colletotrichum orbiculare; read-out: control of Glomerella lagenarium

| Structure (SMILES) | inhibition of growth at 200 ppm [1] [%] | inhibition of growth at 200 ppm (Fusarium culmorum [2]) [%] | inhibition of growth at 200 ppm [3] [%] | pest or weed control at 200 ppm (Fusarium culmorum [4]) [%] | inhibition of growth at 200 ppm [5] [%] | melting point [°C] |
| --- | --- | --- | --- | --- | --- | --- |
| CCOC(OCC)C(C)(Cc1ccccc1)NC(=O)c1cnc2c(F)cccc2c1 (centres unmarked) [Compound E-116, N-(1-benzyl-2,2-diethoxy-1-methyl-ethyl)-8-fluoro-quinoline-3-carboxamide] | ≥ 80 | ≥ 80 | ≥ 80 | – | – | – |
| CC(F)(F)C[C@](C)(Cc1ccccc1)NC(=O)c1cnc2ccccc2c1 [Compound F-25, N-[(1S)-1-benzyl-3,3-difluoro-1-methyl-butyl]quinoline-3-carboxamide] | ≥ 80 | ≥ 80 | ≥ 80 | ≥ 80 | ≥ 80 | – |
| C/C=C/C(C)(Cc1ccccc1)NC(=O)c1cnc2ccccc2c1 (centres unmarked) [Compound E-88, N-[(E)-1-benzyl-1-methyl-but-2-enyl]quinoline-3-carboxamide] | ≥ 80 | ≥ 80 | ≥ 80 | ≥ 80 | – | – |
| CON=CC(C)(Cc1ccccc1)NC(=O)c1cnc2c(F)cccc2c1 (centres unmarked) [Compound E-117, N-(1-benzyl-2-methoxyimino-1-methyl-ethyl)-8-fluoro-quinoline-3-carboxamide] | ≥ 80 | ≥ 80 | ≥ 80 | – | – | – |
| COCCC(C)(Cc1ccccc1)NC(=O)c1cnc2c(F)cccc2c1 (centres unmarked) [Compound E-121, N-(1-benzyl-3-methoxy-1-methyl-propyl)-8-fluoro-quinoline-3-carboxamide] | ≥ 80 | ≥ 80 | ≥ 80 | – | – | – |
| CC(Cc1ccccc1)(CC(F)(F)F)NC(=O)c1cnc2c(F)c(F)ccc2c1 (centres unmarked) [Compound E-102, N-(1-benzyl-3,3,3-trifluoro-1-methyl-propyl)-7,8-difluoro-quinoline-3-carboxamide] | ≥ 80 | ≥ 80 | – | ≥ 80 | ≥ 80 | 158 to 160 |
| CC(C)(F)C[C@@](C)(Cc1ccccc1)NC(=O)c1cnc2c(F)cccc2c1 [Compound F-23, N-[(1R)-1-benzyl-3-fluoro-1,3-dimethyl-butyl]-8-fluoro-quinoline-3-carboxamide] | ≥ 80 | ≥ 80 | ≥ 80 | ≥ 80 | ≥ 80 | – |
| CC(C)CC(C)(Cc1ccccc1)NC(=O)c1cc2cccc(F)c2nc1Cl (centres unmarked) [Compound E-106, N-(1-benzyl-1,3-dimethyl-butyl)-2-chloro-8-fluoro-quinoline-3-carboxamide] | ≥ 80 | ≥ 80 | – | ≥ 80 | ≥ 80 | 106 to 108 |
| CC(Cc1ccccc1F)(CC(F)(F)F)NC(=O)c1cnc2c(F)cccc2c1 (centres unmarked) [Compound E-98, 8-fluoro-N-[3,3,3-trifluoro-1-[(2-fluorophenyl)methyl]-1-methyl-propyl]quinoline-3-carboxamide] | ≥ 80 | ≥ 80 | – | ≥ 80 | ≥ 80 | 131 to 133 |
| Cc1nc2c(C#N)cccc2cc1C(=O)NC(C)(Cc1ccccc1)CC(F)(F)F (centres unmarked) [Compound E-113, N-(1-benzyl-3,3,3-trifluoro-1-methyl-propyl)-8-cyano-2-methyl-quinoline-3-carboxamide] | ≥ 80 | ≥ 80 | – | ≥ 80 | ≥ 80 | 136 to 140 |
| Cc1c(C(=O)N[C@](C)(Cc2ccccc2)CC(F)(F)F)cnc2c(F)cccc12 [Compound F-30, N-[(1R)-1-benzyl-3,3,3-trifluoro-1-methyl-propyl]-8-fluoro-4-methyl-quinoline-3-carboxamide] | ≥ 80 | ≥ 80 | ≥ 80 | – | ≥ 80 | – |
